Assays:
Assay type in all cases: in vivo, C57 mice
[1] = system: bleomycin-induced mouse lung disease model; test: Lung HE pathological analysis (Ashcroft score), 7-d modeling; conditions: for HE score (pulmonary fibrosis, Ashcroft): 18 fields of view
Procedure: (§1) Animals of 7-d modeling were randomly divided into 7 groups according to the table below, 6 animals per control group and 12 animals per test group.
(§2) Drug administration began 24 h or 7 d after modeling. […] The day of the first administration was counted as D1, the next day as D2, and so forth. The normal groups and Model groups were given 200 µL of normal saline daily by gavage administration.
1. […] Specifically, a mold was prepared first, and then the tissue was laid flat at the bottom of the mold; after the section face was arranged facedown, the embedding box cover was put on the mold; molten wax was poured into the mold until it overflowed the mold, and then the mold was gently lifted up and laid flat in a freezing platform; after being rapidly cooled and frozen for about 10 min, the mold was took out. • 6) Sectioning method
2. HE staining • 1) A flat section was selected for HE staining. • 2) The section was dewaxed in xylene I for 20 min. • 3) The section was dewaxed in xylene II for 20 min. • 4) The section was soaked in absolute ethanol for 10 min. • 5) Stepwise rehydrating, in absolute ethanol for 5 min, in 90% ethanol for 5 min, in 80% ethanol for 5 min, and in […] for 5 min; and a water wash. • 6) Staining with hematoxylin for 3-5 min. A water wash. • 7) Differentiating with 1% HCl-[…] for 5-10 s. A water wash, and bluing. • 8) Staining with eosin for 30-60 s. A water wash. • 9) Washing with 80% ethanol for 3-5 s, with 95% ethanol for 3-5 s, and with absolute ethanol for 3-5 s. • 10) Coverslipping with neutral resin, observing under a microscope, and photographing.
HE sectioning: 3 sections were consecutively made; flat sections of complete tissue were selected for HE staining; each of the sections was photographed in 3 randomly selected fields of view at 200x magnification. The obtained images were scored.
The general standard Ashcroft scoring method for pulmonary fibrosis tissues was adopted in HE scoring. The HE pathological analysis is an outcome evaluation for irreversible pulmonary fibrosis that develops in interstitial lung disease models.
For 6 animals from each of the 7-d modeling groups, a total of 18 HE fields of view were scored.

[2] = system: bleomycin-induced mouse lung disease model; test: Lung and spleen coefficients, 24-h modeling
Procedure: Animals of 24-h modeling were randomly divided into 5 groups according to the table below, 3 animals per control group and 5 animals per test group.
as §2
Method: after being euthanized, the animals were dissected, and the heart, liver, spleen, lung and kidney were weighed.
In this experiment, 105 C57 mice were randomly selected and subjected to organ drip administration of a single dose of bleomycin at 2.5 mg/kg for 24 h or 7 d for induction. After 7 days of induction, 3 model mice were randomly selected and dissected to determine whether the modeling was successful. After modeling, the survival of the mice was recorded. The living states of the mice were observed and their body weight was measured at a fixed time.
A normal control group comprised 3 mice.

[3] = system: cytokines in bronchoalveolar lavage fluid; test: Inflammatory factor assay of bronchoalveolar lavage fluid by ELISA; conditions: for Percent reduction in IFN-γ in bronchoalveolar lavage fluid with respect to the Model group / Percent reduction in PPAR-y in bronchoalveolar lavage fluid with respect to the Model group: negative = increase; for IL-1β in bronchoalveolar lavage fluid / IL-2 in bronchoalveolar lavage fluid / IL-6 in bronchoalveolar lavage fluid / TNF-α in bronchoalveolar lavage fluid: second half of table, head taken from the 24th table
Procedure: as §1, §2
After the mouse was fixed, its trachea and chest cavity were exposed, and the trachea and the esophagus were bluntly separated with an ophthalmic curved forceps. Two sutures were made between the trachea and the esophagus. An intravenous trocar was inserted into the trachea and ligated at the site where it entered the trachea and at its distal end. A 1 mL syringe was connected to draw in 1 mL of pre-cooled PBS and infuse it into the lung tissue. Significant filling in the lung could be seen with the naked eye. The infusion was stopped for 10 s and withdrawal was performed. The infusion/withdrawal cycle was repeated 3 times. The withdrawn BALF was transferred to a clean EP tube and centrifuged at 4° C., and the supernatant was collected and preserved at -80° C. The bronchoalveolar lavage fluid was assayed for inflammatory factors by ELISA.

[4] = 7-d modeling, Dex 1-1.5 mg/kg i.p. every two days
[5] = Dex 1-1.5 mg/kg i.p. every two days
[6] = 7-d modeling, BSH: BS 180 mg/kg gavage daily
[7] = 7-d modeling, BSL: BS 36 mg/kg gavage daily
[8] = 7-d modeling, BSM: BS 90 mg/kg gavage daily

## C[C@@H]1C[C@H]2[C@@H]3CCC4=CC(=O)C=C[C@]4(C)[C@@]3(F)[C@@H](O)C[C@]2(C)[C@@]1(O)C(=O)CO [Dex, dexamethasone, reference compound]
[1]; [4]
  HE score and benefit rate, ≥4 points (fields/total); pathological tissue change: 7/18
  HE score and benefit rate, ≥4 points (percent of fields); probability of pathological tissue change: 38.9%
  HE score and benefit rate, ≥6 points (fields/total): 0/18
  HE score and benefit rate, ≥6 points (percent of fields): 0%
  HE score (pulmonary fibrosis, Ashcroft): 3.28 ± 0.83
[2]; [5]
  Lung coefficient: 0.93±0.09%
  Spleen coefficient: 0.41±0.06%
[3]; [5]
  IFN-γ in bronchoalveolar lavage fluid: 66.48 ± 4.88 pg/mL
  NF-κB in bronchoalveolar lavage fluid: 818.72 ± 119.21 pg/mL
  PPAR-γ in bronchoalveolar lavage fluid: 232.49 ± 39.00 pg/mL
  Percent reduction in IL-1β in bronchoalveolar lavage fluid with respect to the Model group: 23.21%
  Percent reduction in IL-2 in bronchoalveolar lavage fluid with respect to the Model group: 7.98%
  Percent reduction in IL-6 in bronchoalveolar lavage fluid with respect to the Model group: 55.36%
  Percent reduction in NF-κB in bronchoalveolar lavage fluid with respect to the Model group: 10.75%
  Percent reduction in TGF-β in bronchoalveolar lavage fluid with respect to the Model group: 15.87%
  Percent reduction in TNF-α in bronchoalveolar lavage fluid with respect to the Model group: 5.19%
  TGF-β in bronchoalveolar lavage fluid: 159.28 ± 11.09 pg/mL
  Percent reduction in IFN-γ in bronchoalveolar lavage fluid with respect to the Model group: -100.30%
  Percent reduction in PPAR-y in bronchoalveolar lavage fluid with respect to the Model group: -7.09%
  IL-1β in bronchoalveolar lavage fluid: 9.59 ± 0.90 pg/mL
  IL-2 in bronchoalveolar lavage fluid: 41.67 ± 4.69 pg/mL
  IL-6 in bronchoalveolar lavage fluid: 12.84 ± 1.02 pg/mL
  TNF-α in bronchoalveolar lavage fluid: 53.21 ± 0.90 pg/mL

## O=c1c2ccccc2[se]n1CCCCn1[se]c2ccccc2c1=O [BS, 1,4-[bis(1,2-benzisoselenazol-3(2H)-one)]butane]
[1]; 7-d model, formation stage, BSL (36 mg/kg), BSM (90 mg/kg) and BSH (180 mg/kg)
  Effect on lung tissue structure, HE (in words): significantly reduce structural changes in lung tissues
[1]; 7-d model, BSH, 180 mg/kg
  Effect against ECM deposition (in words): significant synergetic effect against ECM deposition
[1]; 7-d modeling, BSH: BS 180 mg/kg
  Clear lung tissue damage or pathological tissue change, in words: did not show clear lung tissue damage or pathological tissue change
[1]; [6]
  HE score and benefit rate, ≥4 points (fields/total); pathological tissue change: 0/18
  HE score and benefit rate, ≥4 points (percent of fields); probability of pathological tissue change: 0%
  HE score and benefit rate, ≥5 points (fields/total); clear lung tissue damage: 0/18
  HE score and benefit rate, ≥5 points (percent of fields); probability of clear lung tissue damage: 0%
  HE score and benefit rate, ≥6 points (fields/total): 0/18
  HE score and benefit rate, ≥6 points (percent of fields): 0%
  Lung HE histology description: substantially complete lung tissue structures
  HE score (pulmonary fibrosis, Ashcroft): 1.48 ± 0.78
[1]; [7]
  HE score and benefit rate, ≥4 points (fields/total); pathological tissue change: 15/18
  HE score and benefit rate, ≥4 points (percent of fields); probability of pathological tissue change: 83.3%
  HE score and benefit rate, ≥5 points (fields/total); clear lung tissue damage: 6/18
  HE score and benefit rate, ≥5 points (percent of fields); probability of clear lung tissue damage: 33.3%
  HE score and benefit rate, ≥6 points (fields/total): 1/18
  HE score and benefit rate, ≥6 points (percent of fields): 5.6%
  Lung HE histology description: relatively better lung structures than the Model group
  HE score (pulmonary fibrosis, Ashcroft): 4.28 ± 0.83
[1]; [8]
  HE score and benefit rate, ≥4 points (fields/total); pathological tissue change: 5/18
  HE score and benefit rate, ≥4 points (percent of fields); probability of pathological tissue change: 27.8%
  HE score and benefit rate, ≥5 points (fields/total); clear lung tissue damage: 1/18
  HE score and benefit rate, ≥5 points (percent of fields); probability of clear lung tissue damage: 5.6%
  HE score and benefit rate, ≥6 points (fields/total): 0/18
  HE score and benefit rate, ≥6 points (percent of fields): 0%
  Lung HE histology description: much better lung structures than the Model group
  HE score (pulmonary fibrosis, Ashcroft): 3.00 ± 0.84
[2]; BS 90 mg/kg gavage daily
  Lung coefficient: 0.89±0.04%
  Spleen coefficient: 0.37±0.02%
[2]; BS 90 mg/kg, effect better than that of Dex
  Effect on spleen coefficient (in words): significantly decrease the spleen coefficient
[3]; BSH: BS 180 mg/kg gavage daily
  IFN-γ in bronchoalveolar lavage fluid: 55.70 ± 4.27 pg/mL
  NF-κB in bronchoalveolar lavage fluid: 759.34 ± 104.53 pg/mL
  PPAR-γ in bronchoalveolar lavage fluid: 237.75 ± 24.92 pg/mL
  Percent reduction in IL-1β in bronchoalveolar lavage fluid with respect to the Model group: 61.70%
  Percent reduction in IL-2 in bronchoalveolar lavage fluid with respect to the Model group: 10.87%
  Percent reduction in IL-6 in bronchoalveolar lavage fluid with respect to the Model group: 67.10%
  Percent reduction in NF-κB in bronchoalveolar lavage fluid with respect to the Model group: 17.22%
  Percent reduction in TGF-β in bronchoalveolar lavage fluid with respect to the Model group: 14.53%
  Percent reduction in TNF-α in bronchoalveolar lavage fluid with respect to the Model group: 22.95%
  TGF-β in bronchoalveolar lavage fluid: 161.82 ± 20.96 pg/mL
  Percent reduction in IFN-γ in bronchoalveolar lavage fluid with respect to the Model group: -67.81%
  Percent reduction in PPAR-y in bronchoalveolar lavage fluid with respect to the Model group: -9.52%
  IL-1β in bronchoalveolar lavage fluid: 4.78 ± 0.69 pg/mL
  IL-2 in bronchoalveolar lavage fluid: 40.37 ± 5.25 pg/mL
  IL-6 in bronchoalveolar lavage fluid: 9.47 ± 1.96 pg/mL
  TNF-α in bronchoalveolar lavage fluid: 43.24 ± 7.14 pg/mL
[3]; BSH: BS 180 mg/kg, used alone
  Inhibitory effect on inflammatory cells and proinflammatory factors (NF-κB, TNF-α, IL-1β, IL-2, IL-6) compared to Dex, in words: greater inhibitory effect
[3]; BSL: BS 36 mg/kg gavage daily
  IFN-γ in bronchoalveolar lavage fluid: 38.74 ± 4.74 pg/mL
  NF-κB in bronchoalveolar lavage fluid: 867.20 ± 174.12 pg/mL
  PPAR-γ in bronchoalveolar lavage fluid: 38.74 ± 4.74 pg/mL
  Percent reduction in IL-1β in bronchoalveolar lavage fluid with respect to the Model group: 17.88%
  Percent reduction in IL-2 in bronchoalveolar lavage fluid with respect to the Model group: 4.03%
  Percent reduction in IL-6 in bronchoalveolar lavage fluid with respect to the Model group: 49.92%
  Percent reduction in NF-κB in bronchoalveolar lavage fluid with respect to the Model group: 5.46%
  Percent reduction in TGF-β in bronchoalveolar lavage fluid with respect to the Model group: 0.42%
  Percent reduction in TNF-α in bronchoalveolar lavage fluid with respect to the Model group: 7.38%
  TGF-β in bronchoalveolar lavage fluid: 188.54 ± 24.55 pg/mL
  Percent reduction in IFN-γ in bronchoalveolar lavage fluid with respect to the Model group: -16.73%
  Percent reduction in PPAR-y in bronchoalveolar lavage fluid with respect to the Model group: -5.79%
  IL-1β in bronchoalveolar lavage fluid: 10.26 ± 1.29 pg/mL
  IL-2 in bronchoalveolar lavage fluid: 43.46 ± 7.51 pg/mL
  IL-6 in bronchoalveolar lavage fluid: 14.41 ± 1.33 pg/mL
  TNF-α in bronchoalveolar lavage fluid: 51.98 ± 4.37 pg/mL
[3]; BSM: BS 90 mg/kg gavage daily
  IFN-γ in bronchoalveolar lavage fluid: 53.31 ± 5.29 pg/mL
  NF-κB in bronchoalveolar lavage fluid: 824.16 ± 155.14 pg/mL
  Percent reduction in IL-1β in bronchoalveolar lavage fluid with respect to the Model group: 47.93%
  Percent reduction in IL-2 in bronchoalveolar lavage fluid with respect to the Model group: 9.81%
  Percent reduction in IL-6 in bronchoalveolar lavage fluid with respect to the Model group: 54.37%
  Percent reduction in NF-κB in bronchoalveolar lavage fluid with respect to the Model group: 10.15%
  Percent reduction in TGF-β in bronchoalveolar lavage fluid with respect to the Model group: 2.87%
  Percent reduction in TNF-α in bronchoalveolar lavage fluid with respect to the Model group: 11.68%
  TGF-β in bronchoalveolar lavage fluid: 178.54 ± 14.64 pg/mL
  Percent reduction in IFN-γ in bronchoalveolar lavage fluid with respect to the Model group: -60.63%
  Percent reduction in PPAR-y in bronchoalveolar lavage fluid with respect to the Model group: -6.09%
  IL-1β in bronchoalveolar lavage fluid: 6.50 ± 1.38 pg/mL
  IL-2 in bronchoalveolar lavage fluid: 40.84 ± 3.88 pg/mL
  IL-6 in bronchoalveolar lavage fluid: 13.13 ± 1.03 pg/mL
  TNF-α in bronchoalveolar lavage fluid: 49.57 ± 5.97 pg/mL

From US20230210819A1, “USE OF BENZISOSELAZOLE DERIVATIVE FOR ANTI-CORONAVIRUS AND CONTROL OF INTERSTITIAL LUNG DISEASE (ILD) RELATED TO CORONAVIRUS” (SHANGHAI YUANXI MEDICINE CORP., priority 2020, published 2023)
